Reference: US20050197350A1, “Novel quinoline, tetrahydroquinazoline, and pyrimidine derivatives and methods of treatment related to the use thereof” (TAISHO PHARMACEUTICAL CO., LTD., priority 2003, published 2005)

System: MCH receptors
Assay: MCH receptor activity class (method not given)
Settings: MCH receptor activity class 1-3 (percent of control at 10^-7 M or IC50)

SMILES | class
Cc1cccc(C(C)(C)C)c1NC(=O)NC[C@H]1CC[C@@H](Nc2cc(N(C)C)c3ccccc3n2)CC1 [compound 2383, N-(2-tert-butyl-6-methylphenyl)-N′-[(cis-4-{[4-(dimethylamino)quinolin-2-yl]amino}cyclohexyl)methyl]urea] | 1 (Class 1: The value of percent of control at 10^−7 M was less than 40% or the value of IC50 was less than 50 nM.)
CN(C)c1cc(N[C@H]2CC[C@@H](CNC(=O)Nc3ccccc3C(C)(C)C)CC2)nc2ccccc12 [compound 2384] | 1 (Class 1: The value of percent of control at 10^−7 M was less than 40% or the value of IC50 was less than 50 nM.)
Cc1c(Cl)cccc1NC(=O)NC[C@H]1CC[C@@H](Nc2cc(N(C)C)c3ccccc3n2)CC1 [compound 2385] | 3 (Class 3 The value of percent of control at 10^−7 M was more than 60% or the value of IC50 was more than 200 nM.)
CN(C)c1cc(N[C@H]2CC[C@@H](CNC(=O)Nc3c(F)cc(Br)cc3F)CC2)nc2ccccc12 [compound 2386] | 3 (Class 3 The value of percent of control at 10^−7 M was more than 60% or the value of IC50 was more than 200 nM.)
CN(C)c1cc(N[C@H]2CC[C@@H](CNC(=O)Nc3ccc(Cl)cc3C(F)(F)F)CC2)nc2ccccc12 [compound 2387] | 3 (Class 3 The value of percent of control at 10^−7 M was more than 60% or the value of IC50 was more than 200 nM.)
CN(C)c1cc(N[C@H]2CC[C@@H](CNC(=O)Nc3ccc(C#N)cc3)CC2)nc2ccccc12 [compound 2388] | 3 (Class 3 The value of percent of control at 10^−7 M was more than 60% or the value of IC50 was more than 200 nM.)
CN(C)c1cc(N[C@H]2CC[C@@H](CNC(=O)NC(c3ccccc3)c3ccccc3)CC2)nc2ccccc12 [compound 2389, N-[(cis-4-{[4-(dimethylamino)quinolin-2-yl]amino}cyclohexyl)methyl]-N′-(diphenylmethyl)urea] | 2 (Class 2: The value of percent of control at 10^−7 M was from 40% to 60% or the value of IC′50 was from 50 nM to 200 nM.)
Cc1cc(Br)cc(C)c1NC(=O)NC[C@H]1CC[C@@H](Nc2cc(N(C)C)c3ccccc3n2)CC1 [compound 2390, N-(4-bromo-2,6-dimethylphenyl)-N′-[(cis-4-{[4-(dimethylamino)quinolin-2-yl]amino}cyclohexyl)methyl]urea] | 1 (Class 1: The value of percent of control at 10^−7 M was less than 40% or the value of IC50 was less than 50 nM.)
Cc1noc(-c2ccccc2)c1NC(=O)NC[C@H]1CC[C@@H](Nc2cc(N(C)C)c3ccccc3n2)CC1 [compound 2391] | 3 (Class 3 The value of percent of control at 10^−7 M was more than 60% or the value of IC50 was more than 200 nM.)
Cc1cc(NC(=O)NC[C@H]2CC[C@@H](Nc3cc(N(C)C)c4ccccc4n3)CC2)c(C(F)(F)F)o1 [compound 2392] | 3 (Class 3 The value of percent of control at 10^−7 M was more than 60% or the value of IC50 was more than 200 nM.)
CN(C)c1cc(N[C@H]2CC[C@@H](CNC(=O)Nc3cc(Cl)cc(Cl)c3)CC2)nc2ccccc12 [compound 2393] | 3 (Class 3 The value of percent of control at 10^−7 M was more than 60% or the value of IC50 was more than 200 nM.)
CN(C)c1cc(N[C@H]2CC[C@@H](CNC(=O)Nc3cccc(Cl)c3Cl)CC2)nc2ccccc12 [compound 2394] | 2 (Class 2: The value of percent of control at 10^−7 M was from 40% to 60% or the value of IC′50 was from 50 nM to 200 nM.)
Cc1ccc(NC(=O)NC[C@H]2CC[C@@H](Nc3cc(N(C)C)c4ccccc4n3)CC2)cc1 [compound 2395] | 3 (Class 3 The value of percent of control at 10^−7 M was more than 60% or the value of IC50 was more than 200 nM.)
CC(C)c1cccc(C(C)C)c1NC(=O)NC[C@H]1CC[C@@H](Nc2cc(N(C)C)c3ccccc3n2)CC1 [compound 2396] | 1 (Class 1: The value of percent of control at 10^−7 M was less than 40% or the value of IC50 was less than 50 nM.)
Cc1ccc([N+](=O)[O-])c(NC(=O)NC[C@H]2CC[C@@H](Nc3cc(N(C)C)c4ccccc4n3)CC2)c1C [compound 2397] | 3 (Class 3 The value of percent of control at 10^−7 M was more than 60% or the value of IC50 was more than 200 nM.)
CN(C)c1cc(N[C@H]2CC[C@@H](CNC(=O)Nc3c(Br)cc(F)cc3Br)CC2)nc2ccccc12 [compound 2398] | 3 (Class 3 The value of percent of control at 10^−7 M was more than 60% or the value of IC50 was more than 200 nM.)
CN(C)c1cc(N[C@H]2CC[C@@H](CNC(=O)Nc3c(Cl)cccc3Cl)CC2)nc2ccccc12 [compound 2399] | 3 (Class 3 The value of percent of control at 10^−7 M was more than 60% or the value of IC50 was more than 200 nM.)
COc1ccc(C)cc1NC(=O)NC[C@H]1CC[C@@H](Nc2cc(N(C)C)c3ccccc3n2)CC1 [compound 2400] | 3 (Class 3 The value of percent of control at 10^−7 M was more than 60% or the value of IC50 was more than 200 nM.)
Cc1cccc([N+](=O)[O-])c1NC(=O)NC[C@H]1CC[C@@H](Nc2cc(N(C)C)c3ccccc3n2)CC1 [compound 2401] | 3 (Class 3 The value of percent of control at 10^−7 M was more than 60% or the value of IC50 was more than 200 nM.)
CN(C)c1cc(N[C@H]2CC[C@@H](CNC(=O)Nc3ccc(F)c(F)c3)CC2)nc2ccccc12 [compound 2402] | 3 (Class 3 The value of percent of control at 10^−7 M was more than 60% or the value of IC50 was more than 200 nM.)
CN(C)c1cc(N[C@H]2CC[C@@H](CNC(=O)Nc3cc(F)cc(F)c3)CC2)nc2ccccc12 [compound 2403] | 3 (Class 3 The value of percent of control at 10^−7 M was more than 60% or the value of IC50 was more than 200 nM.)
CN(C)c1cc(N[C@H]2CC[C@@H](CNC(=O)Nc3ccc(F)c(Cl)c3)CC2)nc2ccccc12 [compound 2404] | 3 (Class 3 The value of percent of control at 10^−7 M was more than 60% or the value of IC50 was more than 200 nM.)
CN(C)c1ccnc(N[C@H]2CC[C@@H](CNC(=O)Nc3ccccc3Cl)CC2)n1 [compound 2405] | 3 (Class 3 The value of percent of control at 10^−7 M was more than 60% or the value of IC50 was more than 200 nM.)
Cc1cccc(C)c1NC(=O)NC[C@H]1CC[C@@H](Nc2nccc(N(C)C)n2)CC1 [compound 2406, N-[(cis-4-{[4-(dimethylamino)pyrimidin-2-yl]amino}cyclohexyl)methyl]-N′-(2,6-dimethylphenyl)urea] | 1 (Class 1: The value of percent of control at 10^−7 M was less than 40% or the value of IC50 was less than 50 nM.)
CN(C)c1ccnc(N[C@H]2CC[C@@H](CNC(=O)Nc3ccc(F)cc3F)CC2)n1 [compound 2407, N-(2,4-difluorophenyl)-N′-[(cis-4-{[4-(dimethylamino)pyrimidin-2-yl]amino}cyclohexyl)methyl]urea] | 2 (Class 2: The value of percent of control at 10^−7 M was from 40% to 60% or the value of IC′50 was from 50 nM to 200 nM.)
CCc1cccc(C)c1NC(=O)NC[C@H]1CC[C@@H](Nc2nccc(N(C)C)n2)CC1 [compound 2408, N-[(cis-4-{[4-(dimethylamino)pyrimidin-2-yl]amino}cyclohexyl)methyl]-N′-(2-ethyl-6-methylphenyl)urea] | 1 (Class 1: The value of percent of control at 10^−7 M was less than 40% or the value of IC50 was less than 50 nM.)
